Laboratory results as given in publication PMC11167047 (Cell Death Discovery, 2024).

Key:
Experiment in all cases: kinome screen (33PanQinase)
Type in all cases: biochemical
PKCΔ = target: T1, PKCΔ (Homo sapiens, UniProt Q05655)
T1 construct: purchased Reaction Biology Europe GmbH (formerly ProQinase)
Experimental: (§1) The Kinome Screening was performed by Reaction Biology Europe GmbH (http://reactionbiology.com; Freiburg i. Br., Germany).

PAK7 = target: T2, PAK7 (Homo sapiens, UniProt Q9P286)
T2 construct: purchased Reaction Biology Europe GmbH (formerly ProQinase)
Experimental: as §1

IKKε = target: T3, IKKε (Homo sapiens, UniProt Q14164)
T3 construct: purchased Reaction Biology Europe GmbH (formerly ProQinase)
T3 sequence (Q14164 1-716): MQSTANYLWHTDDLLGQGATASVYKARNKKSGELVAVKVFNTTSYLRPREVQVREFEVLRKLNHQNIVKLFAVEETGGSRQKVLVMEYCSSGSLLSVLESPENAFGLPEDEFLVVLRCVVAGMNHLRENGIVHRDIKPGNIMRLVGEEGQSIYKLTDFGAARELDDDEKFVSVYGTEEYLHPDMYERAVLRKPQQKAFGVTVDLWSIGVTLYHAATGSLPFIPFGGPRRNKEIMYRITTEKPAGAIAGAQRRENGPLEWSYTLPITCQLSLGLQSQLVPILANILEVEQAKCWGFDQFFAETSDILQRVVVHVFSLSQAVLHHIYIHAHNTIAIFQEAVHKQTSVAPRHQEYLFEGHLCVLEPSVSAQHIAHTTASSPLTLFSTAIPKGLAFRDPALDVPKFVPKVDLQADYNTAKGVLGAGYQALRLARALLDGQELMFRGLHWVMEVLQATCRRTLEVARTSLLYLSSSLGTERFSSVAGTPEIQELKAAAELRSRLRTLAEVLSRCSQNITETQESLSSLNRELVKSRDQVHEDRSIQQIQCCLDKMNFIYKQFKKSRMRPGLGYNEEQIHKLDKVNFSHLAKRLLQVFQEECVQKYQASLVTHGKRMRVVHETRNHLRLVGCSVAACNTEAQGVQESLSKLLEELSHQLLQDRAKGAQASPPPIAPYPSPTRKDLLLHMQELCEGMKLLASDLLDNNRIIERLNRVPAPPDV
Experimental: as §1

CLK3 = target: T4, CLK3 (Homo sapiens, UniProt P49761)
T4 construct: purchased Reaction Biology Europe GmbH (formerly ProQinase)
Experimental: as §1

FGR = target: T5, FGR (Homo sapiens, UniProt P09769)
T5 construct: purchased Reaction Biology Europe GmbH (formerly ProQinase)
T5 sequence (P09769 whole entry): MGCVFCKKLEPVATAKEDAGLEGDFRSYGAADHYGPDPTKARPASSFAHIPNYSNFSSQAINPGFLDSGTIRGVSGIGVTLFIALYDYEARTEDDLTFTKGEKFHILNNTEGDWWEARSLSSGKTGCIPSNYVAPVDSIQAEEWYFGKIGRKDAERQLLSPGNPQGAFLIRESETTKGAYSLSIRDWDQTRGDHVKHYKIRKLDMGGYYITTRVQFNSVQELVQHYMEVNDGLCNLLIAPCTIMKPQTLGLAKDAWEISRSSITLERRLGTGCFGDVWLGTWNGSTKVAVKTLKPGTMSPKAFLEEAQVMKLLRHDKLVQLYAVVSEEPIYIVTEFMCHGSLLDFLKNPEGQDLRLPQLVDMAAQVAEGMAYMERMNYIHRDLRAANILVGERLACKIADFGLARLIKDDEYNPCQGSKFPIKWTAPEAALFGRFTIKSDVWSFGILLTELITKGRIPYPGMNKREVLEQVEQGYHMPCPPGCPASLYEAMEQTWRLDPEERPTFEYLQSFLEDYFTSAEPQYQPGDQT
Experimental: as §1

PAK1 = target: T6, PAK1 (Homo sapiens, UniProt Q13153)
T6 construct: purchased Reaction Biology Europe GmbH (formerly ProQinase)
T6 sequence (Q13153 whole entry): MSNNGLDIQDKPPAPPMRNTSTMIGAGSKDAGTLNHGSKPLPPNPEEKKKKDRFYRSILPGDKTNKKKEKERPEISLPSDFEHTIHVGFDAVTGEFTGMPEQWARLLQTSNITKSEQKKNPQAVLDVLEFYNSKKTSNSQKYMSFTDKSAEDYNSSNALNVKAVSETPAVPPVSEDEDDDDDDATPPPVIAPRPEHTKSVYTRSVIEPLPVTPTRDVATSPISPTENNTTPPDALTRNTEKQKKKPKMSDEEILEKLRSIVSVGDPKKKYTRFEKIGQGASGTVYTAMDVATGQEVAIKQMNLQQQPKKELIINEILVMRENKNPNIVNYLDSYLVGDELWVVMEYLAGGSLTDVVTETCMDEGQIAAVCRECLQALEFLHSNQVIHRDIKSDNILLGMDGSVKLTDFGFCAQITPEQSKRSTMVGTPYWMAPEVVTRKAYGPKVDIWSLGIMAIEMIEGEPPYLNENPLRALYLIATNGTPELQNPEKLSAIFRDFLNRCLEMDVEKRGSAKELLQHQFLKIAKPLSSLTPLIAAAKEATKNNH
Experimental: as §1

DDR2 = target: T7, DDR2 (Homo sapiens, UniProt Q16832)
T7 construct: purchased Reaction Biology Europe GmbH (formerly ProQinase)
T7 sequence (Q16832 22-855): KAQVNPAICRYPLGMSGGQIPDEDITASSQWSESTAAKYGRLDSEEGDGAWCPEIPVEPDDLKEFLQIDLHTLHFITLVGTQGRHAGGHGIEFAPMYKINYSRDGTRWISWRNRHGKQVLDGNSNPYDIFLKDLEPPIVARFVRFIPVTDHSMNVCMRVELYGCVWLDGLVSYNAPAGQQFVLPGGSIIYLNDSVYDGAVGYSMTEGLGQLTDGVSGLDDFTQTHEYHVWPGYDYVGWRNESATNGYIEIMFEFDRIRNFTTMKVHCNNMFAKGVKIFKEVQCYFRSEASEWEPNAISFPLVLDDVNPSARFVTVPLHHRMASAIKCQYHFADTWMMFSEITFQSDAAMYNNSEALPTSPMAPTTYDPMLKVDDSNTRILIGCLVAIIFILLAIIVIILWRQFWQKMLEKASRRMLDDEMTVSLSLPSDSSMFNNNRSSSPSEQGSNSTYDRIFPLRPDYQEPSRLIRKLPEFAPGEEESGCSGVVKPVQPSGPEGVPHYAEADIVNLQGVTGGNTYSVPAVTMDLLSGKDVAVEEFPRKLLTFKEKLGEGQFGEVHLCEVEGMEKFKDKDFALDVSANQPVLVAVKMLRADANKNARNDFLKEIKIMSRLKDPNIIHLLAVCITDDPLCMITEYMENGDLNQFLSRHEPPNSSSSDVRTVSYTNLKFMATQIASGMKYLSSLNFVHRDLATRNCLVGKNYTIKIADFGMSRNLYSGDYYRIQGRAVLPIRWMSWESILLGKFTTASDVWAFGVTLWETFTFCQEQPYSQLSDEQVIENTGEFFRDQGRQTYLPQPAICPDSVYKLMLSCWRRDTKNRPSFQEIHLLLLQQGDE
Experimental: as §1

CDK1/CycB1 = target: T8, CDK1/CycB1 (Homo sapiens, UniProt P06493)
T8 construct: purchased Reaction Biology Europe GmbH (formerly ProQinase)
T8 sequence (P06493 whole entry): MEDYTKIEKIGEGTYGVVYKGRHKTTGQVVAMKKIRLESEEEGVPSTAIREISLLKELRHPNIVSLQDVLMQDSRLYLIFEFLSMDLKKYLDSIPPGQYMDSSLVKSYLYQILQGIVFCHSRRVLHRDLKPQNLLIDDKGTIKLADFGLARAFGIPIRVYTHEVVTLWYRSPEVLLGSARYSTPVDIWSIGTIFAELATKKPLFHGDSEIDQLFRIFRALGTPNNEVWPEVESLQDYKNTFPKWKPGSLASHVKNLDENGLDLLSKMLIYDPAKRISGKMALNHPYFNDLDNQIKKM
T8 sequence (P14635 whole entry partner): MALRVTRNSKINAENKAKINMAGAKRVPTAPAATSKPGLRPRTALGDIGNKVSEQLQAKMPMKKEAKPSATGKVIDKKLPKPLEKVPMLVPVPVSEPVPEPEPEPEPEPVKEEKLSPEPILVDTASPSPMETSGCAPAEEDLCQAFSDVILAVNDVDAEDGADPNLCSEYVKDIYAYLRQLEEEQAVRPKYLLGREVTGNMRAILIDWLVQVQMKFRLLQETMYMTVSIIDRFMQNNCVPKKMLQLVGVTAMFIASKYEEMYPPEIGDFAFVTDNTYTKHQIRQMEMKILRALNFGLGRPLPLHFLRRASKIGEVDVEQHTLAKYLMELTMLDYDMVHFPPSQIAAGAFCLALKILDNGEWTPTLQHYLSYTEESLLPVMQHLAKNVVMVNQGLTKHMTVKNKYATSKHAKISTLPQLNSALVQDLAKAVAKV
Experimental: as §1

CDK19/CycC = target: T9, CDK19/CycC (Homo sapiens, UniProt Q9BWU1)
T9 construct: purchased Reaction Biology Europe GmbH (formerly ProQinase)
Experimental: as §1

SRPK1 = target: T10, SRPK1 (Homo sapiens, UniProt Q96SB4)
T10 construct: purchased Reaction Biology Europe GmbH (formerly ProQinase)
Experimental: as §1

SGK1 = target: T11, SGK1 (Homo sapiens, UniProt O00141)
T11 construct: purchased Reaction Biology Europe GmbH (formerly ProQinase)
T11 sequence (O00141 1-431): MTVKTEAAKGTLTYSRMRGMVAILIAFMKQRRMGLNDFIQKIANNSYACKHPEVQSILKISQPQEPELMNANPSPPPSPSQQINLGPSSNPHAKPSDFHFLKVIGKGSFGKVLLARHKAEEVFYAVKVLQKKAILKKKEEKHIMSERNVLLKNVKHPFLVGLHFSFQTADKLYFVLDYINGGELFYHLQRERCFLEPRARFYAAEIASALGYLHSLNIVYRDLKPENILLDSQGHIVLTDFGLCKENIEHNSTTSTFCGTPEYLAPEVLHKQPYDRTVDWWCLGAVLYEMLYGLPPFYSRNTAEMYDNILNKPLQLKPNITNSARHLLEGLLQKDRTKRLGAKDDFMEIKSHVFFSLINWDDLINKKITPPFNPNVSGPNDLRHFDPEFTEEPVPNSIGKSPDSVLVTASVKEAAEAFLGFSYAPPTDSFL
Experimental: as §1

PASK = target: T12, PASK (Homo sapiens, UniProt Q96RG2)
T12 construct: purchased Reaction Biology Europe GmbH (formerly ProQinase)
T12 sequence (Q96RG2 whole entry): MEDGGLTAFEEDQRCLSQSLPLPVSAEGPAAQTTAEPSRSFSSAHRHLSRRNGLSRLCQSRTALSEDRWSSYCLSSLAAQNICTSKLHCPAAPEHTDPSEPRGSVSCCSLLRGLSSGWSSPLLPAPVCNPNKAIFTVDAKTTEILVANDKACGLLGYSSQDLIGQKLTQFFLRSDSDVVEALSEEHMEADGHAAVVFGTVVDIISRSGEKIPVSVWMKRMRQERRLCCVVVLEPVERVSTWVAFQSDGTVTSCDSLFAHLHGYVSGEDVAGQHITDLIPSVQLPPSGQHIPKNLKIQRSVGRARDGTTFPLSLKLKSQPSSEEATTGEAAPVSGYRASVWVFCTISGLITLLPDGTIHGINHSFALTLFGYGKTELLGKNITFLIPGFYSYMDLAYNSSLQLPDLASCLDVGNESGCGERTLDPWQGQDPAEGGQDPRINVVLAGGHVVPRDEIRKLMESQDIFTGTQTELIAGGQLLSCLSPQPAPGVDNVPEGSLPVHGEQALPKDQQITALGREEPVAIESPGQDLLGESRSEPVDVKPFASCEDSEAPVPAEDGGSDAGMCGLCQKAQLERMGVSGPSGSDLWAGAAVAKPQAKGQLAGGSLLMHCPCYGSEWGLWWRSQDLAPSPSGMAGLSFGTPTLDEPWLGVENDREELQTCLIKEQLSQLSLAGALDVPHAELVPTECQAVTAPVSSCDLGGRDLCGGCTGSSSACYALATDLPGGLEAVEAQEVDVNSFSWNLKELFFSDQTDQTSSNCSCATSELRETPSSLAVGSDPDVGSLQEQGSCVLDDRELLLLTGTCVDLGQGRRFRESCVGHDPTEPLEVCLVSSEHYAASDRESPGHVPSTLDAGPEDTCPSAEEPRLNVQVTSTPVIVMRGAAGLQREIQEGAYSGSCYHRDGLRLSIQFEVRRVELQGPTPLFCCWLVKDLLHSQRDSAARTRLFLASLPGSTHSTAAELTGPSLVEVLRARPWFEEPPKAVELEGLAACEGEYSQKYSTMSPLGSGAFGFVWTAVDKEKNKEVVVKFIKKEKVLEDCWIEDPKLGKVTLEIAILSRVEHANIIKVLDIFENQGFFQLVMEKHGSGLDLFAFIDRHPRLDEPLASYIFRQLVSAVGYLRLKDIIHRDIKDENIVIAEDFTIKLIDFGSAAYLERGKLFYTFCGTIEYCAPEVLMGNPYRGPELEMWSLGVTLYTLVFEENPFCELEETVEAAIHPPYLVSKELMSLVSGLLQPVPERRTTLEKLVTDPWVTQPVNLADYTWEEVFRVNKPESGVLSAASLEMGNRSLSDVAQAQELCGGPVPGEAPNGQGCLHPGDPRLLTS
Experimental: as §1

EPHA5 = target: T13, EPHA5 (Homo sapiens, UniProt P54756)
T13 construct: purchased Reaction Biology Europe GmbH (formerly ProQinase)
T13 sequence (P54756 25-1037): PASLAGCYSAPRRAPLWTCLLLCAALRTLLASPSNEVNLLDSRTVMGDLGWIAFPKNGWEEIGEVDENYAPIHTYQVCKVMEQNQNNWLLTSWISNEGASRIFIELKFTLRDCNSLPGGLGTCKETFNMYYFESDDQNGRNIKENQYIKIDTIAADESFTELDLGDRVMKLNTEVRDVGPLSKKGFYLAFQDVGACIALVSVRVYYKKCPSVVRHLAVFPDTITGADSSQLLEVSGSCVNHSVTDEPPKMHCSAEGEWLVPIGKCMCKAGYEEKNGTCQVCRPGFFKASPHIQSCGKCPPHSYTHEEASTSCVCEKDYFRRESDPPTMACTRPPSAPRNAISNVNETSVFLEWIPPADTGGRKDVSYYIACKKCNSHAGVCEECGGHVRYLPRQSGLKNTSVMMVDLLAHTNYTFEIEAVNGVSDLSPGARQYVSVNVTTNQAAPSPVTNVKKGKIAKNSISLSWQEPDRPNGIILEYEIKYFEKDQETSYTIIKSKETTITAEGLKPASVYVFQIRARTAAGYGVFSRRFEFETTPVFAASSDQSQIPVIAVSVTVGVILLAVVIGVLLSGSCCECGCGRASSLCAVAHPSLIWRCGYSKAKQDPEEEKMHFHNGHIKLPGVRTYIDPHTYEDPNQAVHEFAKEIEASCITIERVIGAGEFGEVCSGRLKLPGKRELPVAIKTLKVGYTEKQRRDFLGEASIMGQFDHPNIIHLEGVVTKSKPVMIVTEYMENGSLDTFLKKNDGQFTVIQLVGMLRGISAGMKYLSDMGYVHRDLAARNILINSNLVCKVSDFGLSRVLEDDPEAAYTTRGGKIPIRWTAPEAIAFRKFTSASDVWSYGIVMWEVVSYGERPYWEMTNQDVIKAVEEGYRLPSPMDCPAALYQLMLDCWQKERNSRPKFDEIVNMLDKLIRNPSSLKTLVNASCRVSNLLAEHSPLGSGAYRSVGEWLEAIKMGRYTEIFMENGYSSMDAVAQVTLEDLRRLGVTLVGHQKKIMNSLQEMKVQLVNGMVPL
Experimental: as §1

PKN3 = target: T14, PKN3 (Homo sapiens, UniProt Q6P5Z2)
T14 construct: purchased Reaction Biology Europe GmbH (formerly ProQinase)
Experimental: as §1

T1 sequence (Q05655 whole entry, stated change not applied): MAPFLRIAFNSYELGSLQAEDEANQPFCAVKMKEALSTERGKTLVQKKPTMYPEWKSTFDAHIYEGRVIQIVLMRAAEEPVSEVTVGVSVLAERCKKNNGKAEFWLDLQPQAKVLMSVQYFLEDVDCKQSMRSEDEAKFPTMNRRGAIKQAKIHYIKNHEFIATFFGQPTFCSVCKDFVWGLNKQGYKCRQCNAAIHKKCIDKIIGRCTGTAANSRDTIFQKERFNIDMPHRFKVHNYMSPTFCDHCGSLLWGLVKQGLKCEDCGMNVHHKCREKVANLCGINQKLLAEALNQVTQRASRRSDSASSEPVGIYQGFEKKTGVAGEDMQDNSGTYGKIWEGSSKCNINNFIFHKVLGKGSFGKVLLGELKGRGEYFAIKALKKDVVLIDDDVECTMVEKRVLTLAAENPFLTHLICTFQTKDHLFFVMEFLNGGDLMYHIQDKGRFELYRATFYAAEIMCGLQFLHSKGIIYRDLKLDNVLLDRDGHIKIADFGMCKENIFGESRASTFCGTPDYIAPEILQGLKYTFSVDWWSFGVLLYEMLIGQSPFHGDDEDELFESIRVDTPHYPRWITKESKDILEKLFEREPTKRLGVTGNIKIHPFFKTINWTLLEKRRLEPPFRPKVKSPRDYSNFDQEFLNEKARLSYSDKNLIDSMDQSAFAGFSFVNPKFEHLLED

SMILES	residual kinase activity (PKCΔ; 0.3 µM)	residual kinase activity (PAK7; 0.3 µM)	residual kinase activity (IKKε; 0.3 µM)	residual kinase activity (CLK3; 0.3 µM)	residual kinase activity (FGR; 0.3 µM)	residual kinase activity (PAK1; 0.3 µM)	residual kinase activity (DDR2; 0.3 µM)	residual kinase activity (CDK1/CycB1; 0.3 µM)	residual kinase activity (CDK19/CycC; 0.3 µM)	residual kinase activity (SRPK1; 0.3 µM)	residual kinase activity (SGK1; 0.3 µM)	residual kinase activity (PASK; 0.3 µM)	residual kinase activity (EPHA5; 0.3 µM)	residual kinase activity (PKN3; 0.3 µM)	other results
COc1ccnc2[nH]cc(-c3cc(N)nc(N)c3)c12 [meriolin 16]	6 % of control	81 % of control	61 % of control	36 % of control	105 % of control	98 % of control	93 % of control	5 % of control	2 % of control	99 % of control	76 % of control	39 % of control	102 % of control	74 % of control	residual kinase activity (PKCΔ; 0.03 µM): 47 % of control; residual kinase activity (PAK7; 0.03 µM): 89 % of control; residual kinase activity (IKKε; 0.03 µM): 94 % of control; residual kinase activity (CLK3; 0.03 µM): 94 % of control; residual kinase activity (FGR; 0.03 µM): 111 % of control; residual kinase activity (PAK1; 0.03 µM): 106 % of control; residual kinase activity (DDR2; 0.03 µM): 105 % of control; residual kinase activity (CDK1/CycB1; 0.03 µM): 29 % of control; residual kinase activity (CDK19/CycC; 0.03 µM): 6 % of control; residual kinase activity (SRPK1; 0.03 µM): 108 % of control; residual kinase activity (SGK1; 0.03 µM): 92 % of control; residual kinase activity (PASK; 0.03 µM): 82 % of control; residual kinase activity (EPHA5; 0.03 µM): 115 % of control; residual kinase activity (PKN3; 0.03 µM): 83 % of control
c1ccc(CNc2cc(-c3c[nH]c4ncccc34)ccn2)cc1 [meriolin 36]	4 % of control	42 % of control	40 % of control	13 % of control	40 % of control	85 % of control	59 % of control	4 % of control	3 % of control	110 % of control	30 % of control	3 % of control	146 % of control	27 % of control	residual kinase activity (PKCΔ; 3 µM): 0 % of control; residual kinase activity (PAK7; 3 µM): 9 % of control; residual kinase activity (IKKε; 3 µM): 6 % of control; residual kinase activity (CLK3; 3 µM): 1 % of control; residual kinase activity (FGR; 3 µM): 6 % of control; residual kinase activity (PAK1; 3 µM): 76 % of control; residual kinase activity (DDR2; 3 µM): 17 % of control; residual kinase activity (CDK1/CycB1; 3 µM): 1 % of control; residual kinase activity (CDK19/CycC; 3 µM): 0 % of control; residual kinase activity (SRPK1; 3 µM): 70 % of control; residual kinase activity (SGK1; 3 µM): 10 % of control; residual kinase activity (PASK; 3 µM): 0 % of control; residual kinase activity (EPHA5; 3 µM): 84 % of control; residual kinase activity (PKN3; 3 µM): 3 % of control
